How the values were obtained:
PAO1 = assay: Mouse septicemia model, survival; format: in vivo; settings: 1 mg/kg IP at 0.5 h, 4 h and 8 h post-infection; monitored over 7 days
Experimental: Given the excellent bacteria killing properties and biocompatibility of PIM 1 chloride, the therapeutic efficacy of this polymer was tested in vivo using a mouse septicemia model (FIG. 13). Balb/c female mice (7 weeks with one week quarantine) were used to test the PAO1 septic shock protection efficacy of PIM 1. Exponential phase of PAO1 was collected and washed twice with PBS, and re-suspended in the same volume of PBS. 300 μL of cell suspension containing 3×10^7 CFU of PAO1 was introduced into each mouse via intraperitoneal injection to induce septic shock. […] The survival rate of the mice was monitored over 7 days.

[1] = test system: PAER (carbapenem-resistant Pseudomonas aeruginosa, CRPA); settings: imipenem control, 2 mg/kg, 3 doses
Experimental: In another study, mice (5 per group) were treated with varied doses of PIM 1 at 1 h, 4 h and 8 h post-infection with PAO1. Positive and negative control groups of mice were injected with 2 mg/kg of imipenem and same volume of PBS respectively, at the same time point. At the 12th hour, all mice were euthanized with peritoneal washes performed via injecting 3.0 mL of PBS into the intraperitoneal cavity followed by massaging the abdomen for 1 min. After which, approximately 1 mL of peritoneal fluid was recovered to calculating the CFU of bacteria, as well as for immune cells quantification.
For carbapenem-resistant Acinetobacter baumannii (CRAB) and carbapenem-resistant Pseudomonas aeruginosa (CRPA) septicemia protection model, similar procedure was conducted with care and 5% mucin was injected together with the bacteria to have the mice immunocompromised (resulting in similar conditions as hospitalised patients).

[2] = test system: AB-1 (carbapenem-resistant Acinetobacter baumannii, CRAB); settings: imipenem control, 2 mg/kg × 3 doses
Experimental: In another study, mice (5 per group) were treated with varied doses of PIM 1 at 1 h, 4 h and 8 h post-infection with PAO1. Positive and negative control groups of mice were injected with 2 mg/kg of imipenem and same volume of PBS respectively, at the same time point. At the 12th hour, all mice were euthanized with peritoneal washes performed via injecting 3.0 mL of PBS into the intraperitoneal cavity followed by massaging the abdomen for 1 min. After which, approximately 1 mL of peritoneal fluid was recovered to calculating the CFU of bacteria, as well as for immune cells quantification. Bacterial loads were also evaluated in the spleen, liver and kidneys of the animals.
For carbapenem-resistant Acinetobacter baumannii (CRAB) and carbapenem-resistant Pseudomonas aeruginosa (CRPA) septicemia protection model, similar procedure was conducted with care and 5% mucin was injected together with the bacteria to have the mice immunocompromised (resulting in similar conditions as hospitalised patients). The amount of bacteria was analysed with one-way classification analysis of variance (ANOVA) and student's t-test (Graphpad Prism for Windows, version 7).

SA29213 = format: cell-based, S. aureus; settings: serial passaging at sub-MIC levels, 21 days
Experimental: Aliquots of the bacteria at various time points were stored in glycerol and kept at −80° C. for further study whenever resistance development was observed. Ofloxacin was used as the positive control.

Compound: colistin
- survival rate (PAO1): 80%

Compound: C[C@@H](O)[C@H]1C(=O)N2C(C(=O)O)=C(SCCN=CN)C[C@H]12 [imipenem]
- reduction in the population of CRPA in the intraperitoneal fluid (in words) [1]: no reduction
- removal of AB-1 from the peritoneal fluid (in words) [2]: did not show any removal

Compound: CC1COc2c(N3CCN(C)CC3)c(F)cc3c(=O)c(C(=O)O)cn1c23 (stereo not shown) [ofloxacin]
- resistance evolution (SA29213): above 128 MIC fold change

— patent publication US11439660B2, “Antimicrobial poly(alkylated imidazolium) salts” (NANYANG TECHNOLOGICAL UNIVERSITY, priority 2017, dated 2022)
